Source: patent US20030194373A1, “Angiogenesis targeting molecules” (priority 1998, published 2003)
pKd: −log10 of the molar value. Values belong to the molecule of their own block, whether it stands above or below them.

Assays:
angiogenesis = settings: compared with fumagillin; cited from earlier work
αvβ3 receptor = biological target: T1, αvβ3 receptor (Homo sapiens, UniProt P05106+P06756); assay: Cell adhesion assay with HUVECs and vitronectin; format: cell-based; settings: HUVECs, FIG. 5
T1 construct: The HUVECs are known to express KDR, Flt-1 and αvβ3 receptors; host or cells: HUVEC
T1 sequence (P06756 31-889 limits assumed): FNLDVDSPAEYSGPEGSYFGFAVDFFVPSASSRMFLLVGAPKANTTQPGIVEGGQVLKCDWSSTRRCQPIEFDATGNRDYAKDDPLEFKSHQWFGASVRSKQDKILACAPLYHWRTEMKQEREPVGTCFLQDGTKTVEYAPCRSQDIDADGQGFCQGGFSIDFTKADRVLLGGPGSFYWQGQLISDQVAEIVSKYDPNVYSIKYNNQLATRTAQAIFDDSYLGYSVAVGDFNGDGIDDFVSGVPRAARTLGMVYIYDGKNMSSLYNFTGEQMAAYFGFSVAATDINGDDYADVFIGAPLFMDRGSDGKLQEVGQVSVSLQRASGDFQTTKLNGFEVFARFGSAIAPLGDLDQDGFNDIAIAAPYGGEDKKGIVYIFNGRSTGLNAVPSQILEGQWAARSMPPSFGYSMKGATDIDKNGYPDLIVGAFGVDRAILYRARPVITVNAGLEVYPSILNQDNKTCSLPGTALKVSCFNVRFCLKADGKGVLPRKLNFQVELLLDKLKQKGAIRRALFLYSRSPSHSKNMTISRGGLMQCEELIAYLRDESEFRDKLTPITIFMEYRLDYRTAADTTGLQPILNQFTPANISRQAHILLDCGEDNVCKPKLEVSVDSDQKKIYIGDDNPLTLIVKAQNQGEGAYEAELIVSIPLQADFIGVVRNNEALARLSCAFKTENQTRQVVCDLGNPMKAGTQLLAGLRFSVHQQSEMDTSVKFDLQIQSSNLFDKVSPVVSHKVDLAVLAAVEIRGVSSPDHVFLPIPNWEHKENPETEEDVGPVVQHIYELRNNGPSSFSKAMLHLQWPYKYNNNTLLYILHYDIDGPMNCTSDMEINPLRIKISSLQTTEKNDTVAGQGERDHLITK
T1 sequence (P06756 891-1048 partner limits assumed): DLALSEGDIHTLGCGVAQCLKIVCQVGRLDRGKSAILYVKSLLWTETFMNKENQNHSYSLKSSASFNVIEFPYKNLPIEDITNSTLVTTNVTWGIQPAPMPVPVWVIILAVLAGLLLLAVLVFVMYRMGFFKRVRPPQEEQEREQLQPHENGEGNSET
T1 sequence (P05106 27-788): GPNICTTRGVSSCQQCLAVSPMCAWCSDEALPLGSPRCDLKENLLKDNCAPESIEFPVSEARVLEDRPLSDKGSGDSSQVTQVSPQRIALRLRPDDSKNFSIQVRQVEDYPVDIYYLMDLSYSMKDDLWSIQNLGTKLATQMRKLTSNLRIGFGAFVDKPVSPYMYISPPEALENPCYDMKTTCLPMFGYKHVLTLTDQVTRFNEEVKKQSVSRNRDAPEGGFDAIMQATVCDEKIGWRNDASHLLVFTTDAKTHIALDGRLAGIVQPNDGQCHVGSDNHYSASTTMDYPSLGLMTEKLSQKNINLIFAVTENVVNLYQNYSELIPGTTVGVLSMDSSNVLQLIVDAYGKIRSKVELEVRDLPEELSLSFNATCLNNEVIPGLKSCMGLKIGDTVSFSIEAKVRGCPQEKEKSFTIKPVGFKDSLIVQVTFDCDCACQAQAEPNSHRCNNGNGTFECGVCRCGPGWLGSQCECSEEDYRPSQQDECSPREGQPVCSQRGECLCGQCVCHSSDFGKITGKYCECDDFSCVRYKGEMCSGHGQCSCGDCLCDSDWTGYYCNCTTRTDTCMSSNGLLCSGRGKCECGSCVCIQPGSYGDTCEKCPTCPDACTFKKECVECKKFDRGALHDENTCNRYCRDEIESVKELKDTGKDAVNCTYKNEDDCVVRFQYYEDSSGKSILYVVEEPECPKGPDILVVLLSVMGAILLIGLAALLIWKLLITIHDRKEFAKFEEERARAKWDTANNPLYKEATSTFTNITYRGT
Experimental: HUVECs (BioWhittaker) were cultured on gelatin-coated plates in MCDB 131 media supplemented with 15% fetal bovine serum (FBS), 4 ng/ml basic fibroblast growth factor, 10 ng/ml epidermal growth factor, and 10 U/ml heparin; cells were used in experiments at passages 2-10. The HUVECs are known to express KDR, Flt-1 and αvβ3 receptors.
HUVECs were harvested using 15 mM EDTA pH8.0, washed 3 times, and resuspended in serum-free media. 4×10^4 cells were preincubated either alone (control) or with test compound for 15 minutes at 37° C., then incubated in 96 well plates coated with known integrin ligand—eg. 5 μg/ml vitronectin (Sigma Aldrich Canada, Oakville, ON) coated 3 hours., 37° C., or RGD-ECM precoated plates (Chemicon International, Temecula, Calif.)—and blocked with 1% bovine serum albumin (BSA). Cells were allowed to adhere for 1-2 hours at 37° C. Unbound cells were removed by washing with phosphate-buffered saline (PBS) and the remaining adherent cells were fixed with 2% paraformaldehyde (30 minutes, room temperature). Adhesion was quantitated by cell staining with crystal violet followed by dye extraction with 10% acetic acid. The absorbance was measured at 595 nm in a microplate reader (Bio-Rad Laboratories, Richmond, Calif.). The sequence RGDS was used as a positive control, and RGES was used as a negative control. […]

KDR/Flk-1 = KDR/Flk-1 receptor; read-out: binding affinity to VEGF (KDR/Flk-1); cited from earlier work
Flt-1 = Flt-1 (Homo sapiens, UniProt P17948); settings: Flt-1 receptor; read-out: binding affinity to VEGF (Flt-1); cited from earlier work
Chain of Flt-1 (P17948 27-1338, species assumed): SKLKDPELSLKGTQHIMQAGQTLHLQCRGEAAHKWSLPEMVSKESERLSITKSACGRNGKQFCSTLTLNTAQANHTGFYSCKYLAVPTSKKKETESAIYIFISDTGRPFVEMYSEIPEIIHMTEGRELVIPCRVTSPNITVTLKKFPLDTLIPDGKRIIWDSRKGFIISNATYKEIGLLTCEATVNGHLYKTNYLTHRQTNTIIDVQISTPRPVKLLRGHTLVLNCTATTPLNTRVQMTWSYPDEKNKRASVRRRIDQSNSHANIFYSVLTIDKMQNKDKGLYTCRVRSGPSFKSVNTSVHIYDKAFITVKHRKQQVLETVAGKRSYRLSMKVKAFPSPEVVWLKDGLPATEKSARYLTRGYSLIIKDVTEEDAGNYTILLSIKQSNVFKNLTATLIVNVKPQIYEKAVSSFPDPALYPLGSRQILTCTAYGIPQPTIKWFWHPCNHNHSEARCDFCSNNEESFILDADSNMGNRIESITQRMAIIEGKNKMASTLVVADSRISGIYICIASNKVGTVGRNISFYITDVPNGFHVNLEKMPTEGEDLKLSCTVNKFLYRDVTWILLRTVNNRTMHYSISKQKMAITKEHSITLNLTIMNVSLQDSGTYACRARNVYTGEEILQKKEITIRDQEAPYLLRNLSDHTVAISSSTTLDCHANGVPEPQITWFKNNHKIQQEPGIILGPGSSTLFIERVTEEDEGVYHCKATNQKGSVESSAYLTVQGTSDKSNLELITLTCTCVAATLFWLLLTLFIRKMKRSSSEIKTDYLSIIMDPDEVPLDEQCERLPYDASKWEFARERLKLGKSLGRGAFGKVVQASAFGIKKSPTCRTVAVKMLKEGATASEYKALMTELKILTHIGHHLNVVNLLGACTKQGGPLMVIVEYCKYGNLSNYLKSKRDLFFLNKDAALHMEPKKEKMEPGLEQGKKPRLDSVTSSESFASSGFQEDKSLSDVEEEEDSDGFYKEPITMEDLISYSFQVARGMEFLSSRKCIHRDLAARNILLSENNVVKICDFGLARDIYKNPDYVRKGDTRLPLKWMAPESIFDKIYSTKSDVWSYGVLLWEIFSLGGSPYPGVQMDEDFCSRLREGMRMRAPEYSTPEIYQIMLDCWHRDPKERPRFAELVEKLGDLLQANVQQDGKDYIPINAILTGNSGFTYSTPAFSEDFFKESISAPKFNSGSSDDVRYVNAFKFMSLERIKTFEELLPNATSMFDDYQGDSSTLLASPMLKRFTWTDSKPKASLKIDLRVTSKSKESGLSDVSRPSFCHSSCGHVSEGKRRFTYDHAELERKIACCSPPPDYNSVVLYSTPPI

Molecule: CO[C@@H]1C(=O)CC[C@]2(CO2)[C@@]1(O)[C@@]1(C)O[C@@H]1CC=C(C)C [Ovalicin]
potency as inhibitor of angiogenesis relative to fumagillin (angiogenesis): 50 times

Molecule: CO[C@@H]1[C@H](OC(=O)NC(=O)CCl)CC[C@]2(CO2)[C@H]1[C@@]1(C)O[C@@H]1CC=C(C)C [TNP-470, O-(chloroacetylcarbamoyl)fumagillol]
potency as inhibitor of angiogenesis relative to fumagillin (angiogenesis): 50 times

effect on HUVEC binding to vitronectin / affinity for αvβ3 receptor (αvβ3 receptor; vitronectin coated plate): eliminated the binding | inhibition of binding (αvβ3 receptor; vitronectin): 100%
Molecule: R-G-D-S [RGDS, reference compound]

Molecule: VEGF
pKd (KDR/Flk-1): 9.90 | pKd (Flt-1): 10.60
